# pEC50, pIC50: −log10 of the molar value.
# What was measured:
# [1] = target: PI3-kinase p110-alpha/p85-alpha (Homo sapiens, UniProt P42336); test: Inhibition of recombinant full length PI3K p110alpha/p85alpha (unknown origin) expressed in baculovirus infected sf9 cells using PIP2 as substrate preincubated for 10 mins followed by ATP addition and measured after 45 mins by HTRF assay
# [2] = system: MCF7; test: cells; details: Homo sapiens, MCF7, 72 h
# Description: Antiproliferative activity against human MCF7 cells after 72 hrs by CCK8 assay
# [3] = target: PI3-kinase p110-alpha/p85-alpha (Homo sapiens, UniProt P42336, H1047R); test: Inhibition of recombinant full length PI3K p85alpha/p110alpha H1047R mutant (unknown origin) expressed in baculovirus infected sf9 cells using PIP2 as substrate preincubated for 10 mins followed by ATP addition and measured after 45 mins by HTRF assay
# Chain of PI3-kinase p110-alpha/p85-alpha (Homo sapiens, UniProt P42336, H1047R) (P42336 whole entry H1047R, looked up): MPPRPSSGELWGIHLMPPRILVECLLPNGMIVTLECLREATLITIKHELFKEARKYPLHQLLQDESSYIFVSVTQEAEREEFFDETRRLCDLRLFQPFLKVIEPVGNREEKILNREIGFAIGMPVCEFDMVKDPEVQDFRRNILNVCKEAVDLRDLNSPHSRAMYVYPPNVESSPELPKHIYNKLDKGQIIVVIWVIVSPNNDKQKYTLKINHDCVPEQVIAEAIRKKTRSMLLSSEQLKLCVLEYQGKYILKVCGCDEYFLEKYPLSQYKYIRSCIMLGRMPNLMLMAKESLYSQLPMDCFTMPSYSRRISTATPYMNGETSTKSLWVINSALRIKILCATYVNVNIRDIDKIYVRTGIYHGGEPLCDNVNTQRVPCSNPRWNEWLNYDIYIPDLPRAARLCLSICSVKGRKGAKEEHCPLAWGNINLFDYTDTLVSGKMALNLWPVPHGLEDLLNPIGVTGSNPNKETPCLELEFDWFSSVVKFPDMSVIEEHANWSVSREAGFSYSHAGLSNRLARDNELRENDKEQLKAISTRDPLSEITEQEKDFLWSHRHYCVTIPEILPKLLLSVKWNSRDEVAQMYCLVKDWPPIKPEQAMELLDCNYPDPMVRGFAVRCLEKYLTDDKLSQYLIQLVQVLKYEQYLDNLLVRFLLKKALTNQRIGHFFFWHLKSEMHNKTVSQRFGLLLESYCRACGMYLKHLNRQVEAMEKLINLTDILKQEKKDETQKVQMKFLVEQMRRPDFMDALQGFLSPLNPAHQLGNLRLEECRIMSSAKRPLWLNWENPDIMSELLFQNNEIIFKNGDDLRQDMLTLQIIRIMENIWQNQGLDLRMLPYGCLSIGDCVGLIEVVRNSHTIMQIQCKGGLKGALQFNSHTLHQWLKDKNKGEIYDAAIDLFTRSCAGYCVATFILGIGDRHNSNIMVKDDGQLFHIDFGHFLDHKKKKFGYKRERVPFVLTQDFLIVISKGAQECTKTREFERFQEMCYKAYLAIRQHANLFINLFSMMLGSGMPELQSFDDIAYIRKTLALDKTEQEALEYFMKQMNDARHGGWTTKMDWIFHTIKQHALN
# [4] = system: HCT-116; test: cells; details: Homo sapiens, HCT-116, 72 h
# [5] = Inhibition of mTORC1 (unknown origin); parameters: species or system Homo sapiens
# [6] = system: HCT-116; test: Induction of apoptosis in human HCT116 cells assessed as late apoptotic cells at 6.25 uM after 24 hrs by Annexin V-FITC/propidium iodide staining based flow cytometry (reference value: 7.2%); assay type: functional
# [7] = system: HCT-116; test: Induction of apoptosis in human HCT116 cells assessed as live cells at 6.25 uM after 24 hrs by Annexin V-FITC/propidium iodide staining based flow cytometry (reference value: 89.89%); assay type: functional
# [8] = system: HCT-116; test: Induction of apoptosis in human HCT116 cells assessed as increase in active caspase-8 protein expression after 72 hrs by Western blot analysis; assay type: functional, cell-based
# [9] = system: HCT-116; test: Cell cycle arrest in human HCT116 cells assessed as accumulation at G2/M-phase at 10 uM after 24 hrs by propidium iodide staining based flow cytometry (reference value: 31.47%); assay type: functional
# [10] = system: HCT-116; test: Induction of apoptosis in human HCT116 cells assessed as late apoptotic cells at 12.5 uM after 24 hrs by Annexin V-FITC/propidium iodide staining based flow cytometry (reference value: 7.2%); assay type: functional
# [11] = system: HCT-116; test: Induction of apoptosis in human HCT116 cells assessed as increase in active caspase-9 protein expression after 72 hrs by Western blot analysis; assay type: functional, cell-based
# [12] = system: HCT-116; test: Cell cycle arrest in human HCT116 cells assessed as accumulation at G2/M-phase at 5 uM after 24 hrs by propidium iodide staining based flow cytometry (reference value: 31.47%); assay type: functional
# [13] = system: HCT-116; test: Induction of apoptosis in human HCT116 cells after 24 hrs by Annexin V-FITC/propidium iodide staining based flow cytometry; assay type: functional, cell-based
# [14] = system: HCT-116; test: Induction of apoptosis in human HCT116 cells assessed as early apoptotic cells at 25 uM after 24 hrs by Annexin V-FITC/propidium iodide staining based flow cytometry (reference value: 2.24%); assay type: functional
# [15] = system: HCT-116; test: Induction of apoptosis in human HCT116 cells assessed as necrotic cells at 6.25 uM after 24 hrs by Annexin V-FITC/propidium iodide staining based flow cytometry (reference value: […]); assay type: functional
# [16] = system: HCT-116; test: Induction of apoptosis in human HCT116 cells assessed as early apoptotic cells at 12.5 uM after 24 hrs by Annexin V-FITC/propidium iodide staining based flow cytometry (reference value: 2.24%); assay type: functional
# [17] = system: HCT-116; test: Cell cycle arrest in human HCT116 cells assessed as accumulation at G1 phase at 20 uM after 24 hrs by propidium iodide staining based flow cytometry (reference value: 38.72%); assay type: functional
# [18] = system: HCT-116; test: Induction of apoptosis in human HCT116 cells assessed as early apoptotic cells at 6.25 uM after 24 hrs by Annexin V-FITC/propidium iodide staining based flow cytometry (reference value: 2.24%); assay type: functional
# [19] = system: HCT-116; test: Induction of apoptosis in human HCT116 cells assessed as necrotic cells at 25 uM after 24 hrs by Annexin V-FITC/propidium iodide staining based flow cytometry (reference value: […]); assay type: functional
# [20] = system: HCT-116; test: Cell cycle arrest in human HCT116 cells assessed as accumulation at S-phase at 20 uM after 24 hrs by propidium iodide staining based flow cytometry (reference value: 29.81%); assay type: functional
# [21] = system: HCT-116; test: Cell cycle arrest in human HCT116 cells assessed as accumulation at G1 phase after 24 hrs by propidium iodide staining based flow cytometry; assay type: functional
# [22] = system: HCT-116; test: Cell cycle arrest in human HCT116 cells assessed as accumulation at S-phase at 10 uM after 24 hrs by propidium iodide staining based flow cytometry (reference value: 29.81%); assay type: functional
# [23] = system: HCT-116; test: Induction of apoptosis in human HCT116 cells assessed as increase in active caspase-3 protein expression after 72 hrs by Western blot analysis; assay type: functional, cell-based
# [24] = target: Phosphatidylinositol 4,5-bisphosphate 3-kinase catalytic subunit gamma isoform (Homo sapiens, UniProt P48736); test: Inhibition of PI3K-gamma (unknown origin) after 40 mins by Kinase-Glo assay
# Chain of Phosphatidylinositol 4,5-bisphosphate 3-kinase catalytic subunit gamma isoform (P48736 whole entry, canonical isoform): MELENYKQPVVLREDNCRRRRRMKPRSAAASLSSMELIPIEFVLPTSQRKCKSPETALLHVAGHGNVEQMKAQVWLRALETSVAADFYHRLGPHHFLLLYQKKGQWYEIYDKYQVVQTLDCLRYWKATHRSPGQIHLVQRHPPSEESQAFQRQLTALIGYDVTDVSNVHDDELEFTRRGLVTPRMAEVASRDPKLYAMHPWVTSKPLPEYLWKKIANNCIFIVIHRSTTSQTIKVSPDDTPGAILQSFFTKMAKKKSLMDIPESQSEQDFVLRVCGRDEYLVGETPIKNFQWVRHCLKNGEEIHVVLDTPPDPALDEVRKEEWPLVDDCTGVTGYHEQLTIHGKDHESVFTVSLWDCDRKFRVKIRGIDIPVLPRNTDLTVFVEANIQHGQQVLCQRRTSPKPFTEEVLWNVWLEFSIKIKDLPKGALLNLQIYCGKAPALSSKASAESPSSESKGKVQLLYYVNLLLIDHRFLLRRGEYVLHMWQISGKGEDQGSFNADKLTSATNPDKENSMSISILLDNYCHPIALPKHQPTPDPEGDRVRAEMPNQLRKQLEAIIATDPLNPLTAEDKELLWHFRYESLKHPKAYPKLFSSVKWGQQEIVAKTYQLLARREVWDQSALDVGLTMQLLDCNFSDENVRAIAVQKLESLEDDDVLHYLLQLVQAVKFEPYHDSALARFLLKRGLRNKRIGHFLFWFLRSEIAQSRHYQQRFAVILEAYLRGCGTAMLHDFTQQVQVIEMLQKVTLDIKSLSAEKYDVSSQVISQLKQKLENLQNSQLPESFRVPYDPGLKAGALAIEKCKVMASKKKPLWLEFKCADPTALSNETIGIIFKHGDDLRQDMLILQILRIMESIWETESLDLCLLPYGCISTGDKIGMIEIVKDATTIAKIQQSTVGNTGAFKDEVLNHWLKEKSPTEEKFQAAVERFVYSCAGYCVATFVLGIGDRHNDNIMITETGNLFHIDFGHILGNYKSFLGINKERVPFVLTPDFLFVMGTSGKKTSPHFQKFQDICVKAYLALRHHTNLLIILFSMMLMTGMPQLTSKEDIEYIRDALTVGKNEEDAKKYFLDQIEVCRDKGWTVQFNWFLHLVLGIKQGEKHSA
# [25] = system: HCT-116; test: Induction of apoptosis in human HCT116 cells assessed as necrotic cells at 12.5 uM after 24 hrs by Annexin V-FITC/propidium iodide staining based flow cytometry (reference value: […]); assay type: functional
# [26] = system: HCT-116; test: Cell cycle arrest in human HCT116 cells assessed as accumulation at G2/M-phase at 20 uM after 24 hrs by propidium iodide staining based flow cytometry (reference value: 31.47%); assay type: functional
# [27] = system: HCT-116; test: Cell cycle arrest in human HCT116 cells assessed as accumulation at G1 phase at 5 uM after 24 hrs by propidium iodide staining based flow cytometry (reference value: 38.72%); assay type: functional
# [28] = system: HCT-116; test: Cell cycle arrest in human HCT116 cells assessed as accumulation at G1 phase at 10 uM after 24 hrs by propidium iodide staining based flow cytometry (reference value: 38.72%); assay type: functional
# [29] = system: HCT-116; test: Induction of apoptosis in human HCT116 cells assessed as live cells at 25 uM after 24 hrs by Annexin V-FITC/propidium iodide staining based flow cytometry (reference value: 89.89%); assay type: functional
# [30] = system: HCT-116; test: Induction of apoptosis in human HCT116 cells assessed as live cells at 12.5 uM after 24 hrs by Annexin V-FITC/propidium iodide staining based flow cytometry (reference value: 89.89%); assay type: functional
# [31] = target: Phosphatidylinositol 4,5-bisphosphate 3-kinase catalytic subunit beta isoform (Homo sapiens, UniProt P42338); test: Inhibition of PI3K-beta (unknown origin) after 40 mins by Kinase-Glo assay
# Chain of Phosphatidylinositol 4,5-bisphosphate 3-kinase catalytic subunit beta isoform (P42338 whole entry, canonical isoform): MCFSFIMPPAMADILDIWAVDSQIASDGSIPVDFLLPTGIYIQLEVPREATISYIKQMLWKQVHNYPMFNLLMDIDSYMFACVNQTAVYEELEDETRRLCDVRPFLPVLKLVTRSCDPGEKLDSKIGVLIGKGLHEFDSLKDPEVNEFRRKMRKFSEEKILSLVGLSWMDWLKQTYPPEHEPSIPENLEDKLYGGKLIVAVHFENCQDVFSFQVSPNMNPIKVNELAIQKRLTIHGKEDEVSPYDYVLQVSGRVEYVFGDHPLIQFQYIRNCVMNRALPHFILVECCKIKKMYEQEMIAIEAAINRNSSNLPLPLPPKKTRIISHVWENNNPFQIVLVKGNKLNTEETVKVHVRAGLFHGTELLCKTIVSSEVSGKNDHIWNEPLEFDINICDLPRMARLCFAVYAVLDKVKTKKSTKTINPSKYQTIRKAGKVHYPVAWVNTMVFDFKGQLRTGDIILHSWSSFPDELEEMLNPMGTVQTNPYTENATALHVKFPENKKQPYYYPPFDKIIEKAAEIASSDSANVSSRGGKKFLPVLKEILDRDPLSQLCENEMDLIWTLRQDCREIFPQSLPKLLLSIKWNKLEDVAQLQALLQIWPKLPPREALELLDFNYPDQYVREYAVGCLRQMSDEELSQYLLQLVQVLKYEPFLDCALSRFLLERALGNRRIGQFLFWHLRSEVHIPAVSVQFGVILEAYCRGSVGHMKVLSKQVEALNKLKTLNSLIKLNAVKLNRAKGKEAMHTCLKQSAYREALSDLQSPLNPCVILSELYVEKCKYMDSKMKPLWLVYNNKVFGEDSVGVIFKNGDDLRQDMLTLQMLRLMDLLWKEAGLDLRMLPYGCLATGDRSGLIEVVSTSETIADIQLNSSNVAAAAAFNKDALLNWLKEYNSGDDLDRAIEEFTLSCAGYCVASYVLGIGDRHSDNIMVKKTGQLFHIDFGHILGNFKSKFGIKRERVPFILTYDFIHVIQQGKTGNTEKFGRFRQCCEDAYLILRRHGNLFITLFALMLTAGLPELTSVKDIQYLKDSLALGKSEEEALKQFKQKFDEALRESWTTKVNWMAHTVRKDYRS
# [32] = system: HCT-116; test: Induction of apoptosis in human HCT116 cells assessed as late apoptotic cells at 25 uM after 24 hrs by Annexin V-FITC/propidium iodide staining based flow cytometry (reference value: 7.2%); assay type: functional
# [33] = system: HCT-116; test: Cell cycle arrest in human HCT116 cells assessed as accumulation at S-phase at 5 uM after 24 hrs by propidium iodide staining based flow cytometry (reference value: 29.81%); assay type: functional
# [34] = target: T1, Phosphatidylinositol 4,5-bisphosphate 3-kinase catalytic subunit delta isoform (Homo sapiens, UniProt O00329); test: Inhibition of PI3K-delta (unknown origin) after 40 mins by Kinase-Glo assay
# T1 sequence (O00329 whole entry): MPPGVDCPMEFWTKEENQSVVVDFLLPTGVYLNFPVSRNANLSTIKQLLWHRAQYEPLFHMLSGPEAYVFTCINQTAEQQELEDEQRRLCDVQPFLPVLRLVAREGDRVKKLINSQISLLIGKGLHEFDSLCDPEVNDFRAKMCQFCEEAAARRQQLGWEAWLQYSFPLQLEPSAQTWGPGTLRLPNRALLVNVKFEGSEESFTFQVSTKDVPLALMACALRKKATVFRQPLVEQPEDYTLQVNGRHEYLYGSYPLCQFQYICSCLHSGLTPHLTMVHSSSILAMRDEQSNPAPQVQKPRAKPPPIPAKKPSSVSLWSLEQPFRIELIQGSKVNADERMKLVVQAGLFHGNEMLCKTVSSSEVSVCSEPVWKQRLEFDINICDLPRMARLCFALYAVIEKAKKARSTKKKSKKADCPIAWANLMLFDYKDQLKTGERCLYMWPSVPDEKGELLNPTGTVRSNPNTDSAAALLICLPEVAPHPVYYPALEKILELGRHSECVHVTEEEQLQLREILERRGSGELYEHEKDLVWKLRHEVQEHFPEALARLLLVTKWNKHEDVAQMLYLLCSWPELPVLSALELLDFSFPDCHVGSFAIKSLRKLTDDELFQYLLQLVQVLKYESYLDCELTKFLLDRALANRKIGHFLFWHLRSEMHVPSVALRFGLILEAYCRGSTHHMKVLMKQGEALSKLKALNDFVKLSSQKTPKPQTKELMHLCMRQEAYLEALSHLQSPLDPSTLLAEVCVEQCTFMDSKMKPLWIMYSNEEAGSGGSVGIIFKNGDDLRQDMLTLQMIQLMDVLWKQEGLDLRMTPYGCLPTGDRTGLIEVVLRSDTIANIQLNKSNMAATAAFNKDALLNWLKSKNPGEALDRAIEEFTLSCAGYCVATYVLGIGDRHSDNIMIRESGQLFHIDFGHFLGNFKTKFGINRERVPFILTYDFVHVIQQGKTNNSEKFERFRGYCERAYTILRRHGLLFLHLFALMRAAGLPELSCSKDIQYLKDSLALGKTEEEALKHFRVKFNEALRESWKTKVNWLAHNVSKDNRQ
# Chain of PI3-kinase p110-alpha/p85-alpha (Homo sapiens, UniProt P42336) (P27986 whole entry): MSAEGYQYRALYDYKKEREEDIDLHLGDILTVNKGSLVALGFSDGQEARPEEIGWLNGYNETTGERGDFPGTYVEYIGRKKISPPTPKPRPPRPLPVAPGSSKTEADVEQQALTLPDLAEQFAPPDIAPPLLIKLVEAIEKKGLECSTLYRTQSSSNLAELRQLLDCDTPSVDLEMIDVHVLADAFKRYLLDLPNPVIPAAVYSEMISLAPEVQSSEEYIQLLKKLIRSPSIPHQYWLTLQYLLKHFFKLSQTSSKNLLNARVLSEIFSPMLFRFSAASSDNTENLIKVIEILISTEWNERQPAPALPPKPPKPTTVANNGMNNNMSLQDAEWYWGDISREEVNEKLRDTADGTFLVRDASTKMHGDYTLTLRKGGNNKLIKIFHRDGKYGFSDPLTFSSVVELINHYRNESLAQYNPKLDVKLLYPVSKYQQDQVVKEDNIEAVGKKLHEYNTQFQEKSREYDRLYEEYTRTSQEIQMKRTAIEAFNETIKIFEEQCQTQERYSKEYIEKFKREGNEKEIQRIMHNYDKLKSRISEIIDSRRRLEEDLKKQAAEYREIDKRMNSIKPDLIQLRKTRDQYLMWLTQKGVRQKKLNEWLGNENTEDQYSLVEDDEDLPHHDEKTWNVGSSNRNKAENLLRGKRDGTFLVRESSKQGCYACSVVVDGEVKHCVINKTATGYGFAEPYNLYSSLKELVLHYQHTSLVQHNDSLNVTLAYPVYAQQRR
# Chain of PI3-kinase p110-alpha/p85-alpha (Homo sapiens, UniProt P42336) (P42336 whole entry): as the sequence (P42336 whole entry H1047R, looked up) above, with R1047H counted along it
compound,measurement,setting,value
c1ccc(-c2ccc3nc(-c4ccco4)c(-c4ccco4)nc3c2)cc1,pEC50,[1],4.91
same,pIC50,[2],< 4.30
same,pEC50,[3],4.32
same,pIC50,[4],< 4.30
FC(F)(F)c1ccccc1-c1ccc2nc(-c3ccco3)c(-c3ccco3)nc2c1,pEC50,[1],4.89
same,pIC50,[2],< 4.30
same,pEC50,[3],4.93
same,pIC50,[4],4.34
FC(F)(F)c1ccccc1-c1cc2nc(-c3ccco3)c(-c3ccco3)nc2cc1Br,pEC50,[1],7.01
same,pIC50,[2],4.81
same,pEC50,[3],6.77
same,pIC50,[4],4.87
Cn1c(=O)n(-c2ccc(C(C)(C)C#N)cc2)c2c3cc(-c4cnc5ccccc5c4)ccc3ncc21 [DACTOLISIB],pEC50,[5],7.10
Fc1ccccc1-c1cc2nc(-c3ccco3)c(-c3ccco3)nc2cc1Br,Activity,[6],10.63%
same,Activity,[7],84.79%
same,Activity,[8],Dose-dependent effect
same,Activity,[9],20.34%
same,Activity,[10],15.72%
same,Activity,[11],Dose-dependent effect
same,Activity,[12],32.16%
same,pEC50,[1],7.03
same,Activity,[13],Dose-dependent effect
same,Activity,[14],13.97%
same,Activity,[15],1.01%
same,Activity,[16],3.03%
same,Activity,[17],70.72%
same,Activity,[18],3.57%
same,Activity,[19],0.88%
same,Activity,[20],18.28%
same,Activity,[21],Dose-dependent effect
same,Activity,[22],21.99%
same,pEC50,[5],< 4.52
same,Activity,[23],Dose-dependent effect
same,pEC50,[24],5.00
same,pIC50,[2],4.86
same,Activity,[25],0.96%
same,Activity,[26],11%
same,Activity,[27],44.42%
same,Activity,[28],57.67%
same,Activity,[29],61.38%
same,Activity,[30],80.29%
same,pEC50,[3],6.86
same,pEC50,[31],5.48
same,Activity,[32],23.77%
same,Activity,[33],24.42%
same,pEC50,[34],4.80
same,pIC50,[4],4.95
Clc1cc(Cl)c2nc(-c3ccco3)c(-c3ccco3)nc2c1,pEC50,[1],4.26
same,pIC50,[2],< 4.30
same,pEC50,[3],4.12
same,pIC50,[4],< 4.30
Brc1ccc2nc(-c3ccco3)c(-c3ccco3)nc2c1,pEC50,[1],4.56
same,pIC50,[2],< 4.30
same,pEC50,[3],4.47
same,pIC50,[4],< 4.30
Brc1cc2nc(-c3ccco3)c(-c3ccco3)nc2cc1Br,pIC50,[2],< 4.30
same,pEC50,[3],4.41
same,pIC50,[4],< 4.30
Fc1ccc(-c2cc3nc(-c4ccco4)c(-c4ccco4)nc3cc2Br)c(F)c1,pIC50,[2],4.55
same,pEC50,[3],5.49
same,pIC50,[4],4.78
Clc1ccc2nc(-c3ccco3)c(-c3ccco3)nc2c1Cl,pIC50,[2],< 4.30
same,pEC50,[3],< 4.00
same,pIC50,[4],< 4.30
Brc1cc2nc(-c3ccco3)c(-c3ccco3)nc2cc1-c1ccccc1,pIC50,[2],< 4.30
same,pEC50,[3],4.69
same,pIC50,[4],< 4.30
Brc1cc2nc(-c3ccco3)c(-c3ccco3)nc2cc1-c1cncnc1,pIC50,[2],< 4.30
same,pEC50,[3],4.87
same,pIC50,[4],< 4.30
Fc1cccc(-c2cc3nc(-c4ccco4)c(-c4ccco4)nc3cc2Br)c1,pIC50,[2],4.71
same,pEC50,[3],5.54
same,pIC50,[4],4.37
FC(F)(F)c1ccc2nc(-c3ccco3)c(-c3ccco3)nc2c1,pIC50,[2],< 4.30
same,pEC50,[3],< 4.00
same,pIC50,[4],< 4.30
COc1ccccc1-c1cc2nc(-c3ccco3)c(-c3ccco3)nc2cc1Br,pIC50,[2],< 4.30
same,pEC50,[3],< 4.00
same,pIC50,[4],< 4.30
Clc1ccccc1-c1cc2nc(-c3ccco3)c(-c3ccco3)nc2cc1Br,pIC50,[2],< 4.30
same,pEC50,[3],< 4.00
same,pIC50,[4],< 4.30
COc1ccc(-c2cc3nc(-c4ccco4)c(-c4ccco4)nc3cc2Br)cc1,pIC50,[2],< 4.30
same,pEC50,[3],< 4.00
same,pIC50,[4],< 4.30
